Assay: Solubility in water according to USP and EP
Type: physicochemical
Text: wherein melatonin is complexed with adenosine and glycine. Adenosine is a purine nucleoside consisting of adenine attached to a ribofuranose moiety via a β-N9-glycosidic bond and the low-chain amino acid glycine is a C2 amino acid having a single hydrogen atom as its side chain.

With COc1ccc2[nH]cc(CCNC(C)=O)c2c1 [melatonin, N-acetyl-5-methoxytryptamine] the “Solubility in water, Results” value was 0.1 mg/1.0 ml.

— patent US11684623B2, “Soluble melatonin tripartate adduct for the prevention and treatment of rare and severe eye sight-threatening conditions and neuro-ophthalmic disorders” (WORPHMED SRL, priority 2020, dated 2023)
